Laboratory results: patent US6534514B1, “Kappa opioid receptor antagonists” (Regents of the University of Minnesota, priority 1993, dated 2003)
Like-named read-outs stand apart in the source and are kept apart here.

Columns and labels:
[1] = biological target: delta opioid receptors (Mus musculus, UniProt P32300); assay: Mouse vas deferens (MVD), antagonism of DADLE (D); format: cell-based; design: Both vasa deferentia were dissected out of mice and mounted singly; from tissue; host or cells: mouse vas deferens (Swiss-Webster males) for A3; whole mouse in vivo for A7; details: antagonist 100 nM; agonist DADLE
Protocol: 2. Mouse Vas Deferens (MVD). This assay was performed according to the description by G. Henderson et al., Brit. […] Both vasa deferentia were dissected out of mice and mounted singly through two platinum ring electrodes in a 10 ml organ bath. The bath contained Krebs bicarbonate solution that was continuously bubbled with 95% O2 and 5% CO2. The organ bath was maintained at 37° C. The tissue was attached to an isometric transducer and stimulated transmurally with rectangular pulses ([…], 1 ms duration, supramaximal voltage). Drugs were added cumulatively to the bath in preselected amounts and washed out after noting their maximum effects.
(§1) Concentration-response curves were obtained in the absence (control) and the presence of the antagonist are expressed as IC50 values. The IC50 ratio represents the IC50 in the presence of the antagonist divided by the control IC50 value in the same tissue. Therefore, a high IC50 ratio represents a correspondingly high degree of antagonism at a particular receptor. This IC50 ratio was employed to calculate the Ke value using the equation Ke=[antagonist]/(IC50 ratio-1). Therefore, a low Ke represents a correspondingly high degree of binding at a particular receptor.

[2] = biological target: T1, kappa opioid receptors (Cavia porcellus, UniProt P41144); assay: Guinea pig ileal longitudinal muscle (GPI), antagonism of ethylketazocine (EK); format: cell-based; details: for Selectivity κ/μ: GPI EK versus GPI morphine; for Selectivity κ/δ: GPI EK versus MVD DADLE; for Kb: 15 min incubation, Ke=[antagonist]/(IC50 ratio-1); for kappa antagonist potency compared with norBNI: GPI, EK
T1 construct: a strip of longitudinal muscle with the myenteric plexus attached was prepared; from tissue; host or cells: guinea pig ileal longitudinal muscle with myenteric plexus (Dunkin-Hartley males)
Protocol: (§2) Physiological data for guinea pig ileal longitudinal muscle (GPI) was obtained by the methodology of H. P. Rang, “Stimulant Actions of Volatile Anaesthetics on Smooth Muscle,” Brit. […] In vivo assays were done s.c. on mice.
(§3) 1. Guinea Pig Ileal Longitudinal Muscle (GPI). Ilea from guinea pigs were taken approximately 10 cm from the ileocecal junction, and a strip of longitudinal muscle with the myenteric plexus attached was prepared by the method of […] et al., Brit. […] A 1 cm portion of this strip was then mounted between two platinum electrodes placed in a 10 ml organ bath and connected to an isometric transducer; contractions were recorded on a polygraph. Contractions of the ileal strip were initiated by supramaximal rectangular pulses in all preparations (80 V of 0.5 ms duration at a frequency of 0.1 Hz). […] The organ bath was maintained at 36°-37° C. The longitudinal muscle strip was allowed to equilibrate with continuous stimulation for a minimum of 90 min. Cumulative concentration-response curves were determined after drugs were added to the bath in preselected amounts and washed out with buffer after noting their maximum effects.
as §1

[3] = biological target: mu opioid receptors; details: agonist morphine
Protocol: as §2, §3, §1

[4] = system: rats that were selectively bred for high voluntary ethanol drinking; details: compared to peptidyl delta-opioid receptor antagonists; cited from earlier work
[5] = biological target: delta opioid receptor (Rattus norvegicus, UniProt P33533); details: cited from earlier work
[6] = system: rat model of alcoholism; details: cited from earlier work
[7] = recovering alcoholics; cited from earlier work
[8] = antagonist 100 nM, agonist ethylketazocine
[9] = antagonist 100 nM, IC50 agonist + antagonist/IC50 agonist, agonist ethylketazocine
[10] = antagonist 10 nM, agonist ethylketazocine

Sequence of delta opioid receptors (P32300 whole entry): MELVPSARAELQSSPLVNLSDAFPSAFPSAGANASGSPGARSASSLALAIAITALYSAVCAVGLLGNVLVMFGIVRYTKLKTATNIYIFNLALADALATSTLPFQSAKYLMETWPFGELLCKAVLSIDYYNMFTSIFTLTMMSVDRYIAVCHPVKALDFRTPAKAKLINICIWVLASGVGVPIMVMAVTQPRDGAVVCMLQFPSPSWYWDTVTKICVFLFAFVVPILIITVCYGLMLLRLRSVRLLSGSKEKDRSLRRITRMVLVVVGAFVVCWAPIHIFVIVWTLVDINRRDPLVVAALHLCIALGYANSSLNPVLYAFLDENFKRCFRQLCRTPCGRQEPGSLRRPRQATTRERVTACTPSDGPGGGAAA
T1 sequence (P41144 whole entry): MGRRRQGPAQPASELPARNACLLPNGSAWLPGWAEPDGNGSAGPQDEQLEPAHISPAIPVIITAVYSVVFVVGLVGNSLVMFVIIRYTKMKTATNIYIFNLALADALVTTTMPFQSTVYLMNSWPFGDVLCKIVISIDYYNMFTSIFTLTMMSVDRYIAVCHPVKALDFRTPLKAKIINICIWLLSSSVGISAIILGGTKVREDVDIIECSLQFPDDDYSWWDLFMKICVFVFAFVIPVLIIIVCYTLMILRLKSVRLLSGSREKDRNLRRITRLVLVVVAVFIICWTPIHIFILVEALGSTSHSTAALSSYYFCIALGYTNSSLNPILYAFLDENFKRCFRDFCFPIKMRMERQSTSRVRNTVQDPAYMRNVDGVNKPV
Sequence of delta opioid receptor (P33533 whole entry): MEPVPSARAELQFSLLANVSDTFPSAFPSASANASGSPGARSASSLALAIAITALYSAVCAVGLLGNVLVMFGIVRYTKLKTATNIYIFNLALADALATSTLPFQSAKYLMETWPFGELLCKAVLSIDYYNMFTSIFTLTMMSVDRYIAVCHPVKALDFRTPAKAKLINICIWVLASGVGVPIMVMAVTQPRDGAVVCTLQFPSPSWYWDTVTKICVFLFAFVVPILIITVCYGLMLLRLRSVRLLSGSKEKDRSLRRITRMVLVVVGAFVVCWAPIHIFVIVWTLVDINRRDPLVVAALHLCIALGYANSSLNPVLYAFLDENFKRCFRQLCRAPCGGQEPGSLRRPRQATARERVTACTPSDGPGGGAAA

17-(Cyclopropylmethyl)-6,7-dehydro-4,5α-epoxy-3,14-dihydroxy-5′-[N-(β-dimethylamino)ethylcarboxamido]-6,7-2′,3′-indolomorphinan Dihydrochloride [Compound 45]
IC50 ratio, D (MVD) [1]: 1.51 ± 0.42 | Selectivity κ/μ [2]: 6 | Selectivity κ/δ [2]: 117 | Kb [2, 8]: 0.568 nM | IC50 ratio, EK (GPI) [2, 9]: 177 ± 54 | IC50 ratio, M (GPI) ([3]; antagonist 100 nM): 30.3 ± 3.6 | Ke, M (GPI) ([3]; antagonist 100 nM): 3.41 nM

17-(Cyclopropylmethyl)-6,7-dehydro-4,5α-epoxy-3,14-dihydroxy-5′-[N-(β-diethylamino)ethylcarboxyamido]-6,7-2′,3′-indolomorphinan Dihydrochloride [Compound 38]
IC50 ratio, D (MVD) [1]: 1.95 ± 0.56 | Selectivity κ/μ [2]: 16 | Selectivity κ/δ [2]: 329 | kappa antagonist potency compared with norBNI [2]: more potent | IC50 ratio, EK (GPI) [2, 10]: 31.8 ± 7.7 | Ke, EK (GPI) [2, 10]: (10 nm) 0.320 nM | IC50 ratio, M (GPI) ([3]; antagonist 50 nM): 17.1 ± 2.1 | Ke, M (GPI) ([3]; antagonist 50 nM): (50 nm) 3.14 nM

Oc1ccc2c3c1O[C@H]1c4oc5ccccc5c4C[C@@]4(O)[C@@H](C2)N(CC2CC2)CC[C@]314 [NTB]
suppression of ethanol drinking [4]: unexpectedly prolonged suppression of ethanol drinking

17-(Cyclopropylmethyl)-6,7-dehydro-4,5α-epoxy-3,14-dihydroxy-5′-[N^2-(N,N-dimethylglycinamidino)methyl]-6,7-2′,3′-indolomorphinan Trihydrochloride [Compound 42]
IC50 ratio, D (MVD) [1]: 4.91 ± 1.38 | Ke, D (MVD) [1]: 25.6 nM | Selectivity κ/μ [2]: 55 | Selectivity κ/δ [2]: 111 | kappa antagonist potency compared with norBNI [2]: more potent | kappa selectivity compared with norBNI ([2]; GPI/MVD): more selective | potency and selectivity compared with norBNI ([2]; GPI/MVD): more potent and selective | Kb [2, 8]: 0.183 nM | IC50 ratio, EK (GPI) [2, 9]: 547 ± 125 | IC50 ratio, M (GPI) ([3]; antagonist 100 nM): 10.0 ± 0.4 | Ke, M (GPI) ([3]; antagonist 100 nM): 11.1 nM

N,N-diallyl-Tyr-Aib-Aib-Phe-Leu-OH [ICI 174864]
duration of action ([5]; ethanol drinking): very short duration of action | ethanol drinking ([5]; in vivo): strongly inhibits ethanol drinking

17-(Cyclopropylmethyl)-6,7-dehydro-4,5α-epoxy-3,14-dihydroxy-5′-[(N^2-propanamidino)methyl]-6,7-2′,3′-indolomorphinan Dihydrochloride [Compound 1]
IC50 ratio, D (MVD) [1]: 2.28 ± 0.57 | Selectivity κ/μ [2]: 14 | Selectivity κ/δ [2]: 69 | Kb [2, 8]: 0.66 nM | IC50 ratio, EK (GPI) [2, 9]: 159 ± 43 | IC50 ratio, M (GPI) ([3]; antagonist 100 nM): 11.3 ± 2.6 | Ke, M (GPI) ([3]; antagonist 100 nM): 9.71 nM

Oc1ccc2c3c1OC1c4[nH]c5c(c4CC4(O)C(C2)N(CC2CC2)CC[C@]314)C[C@@]1(O)C2Cc3ccc(O)c4c3[C@@]1(CCN2CC1CC1)[C@H]5O4 (some centres unmarked) [norBinaltorphimine, reference compound]
Kb [2, 8]: 0.56 nM | Ke, M (GPI) ([3]; antagonist 100 nM): 14 nM

17-(Cyclopropylmethyl)-6,7-dehydro-4,5α-epoxy-3,14-dihydroxy-51′-[(4-dimethylaminobutyryl)aminomethyl]-6,7-2′,3′-indolomorphinan Dihydrochloride [Compound 43]
IC50 ratio, D (MVD) [1]: 1.20 ± 0.72 | Selectivity κ/μ [2]: 10 | Selectivity κ/δ [2]: 166 | kappa antagonist potency compared with norBNI [2]: more potent | Kb [2, 8]: 0.505 nM | IC50 ratio, EK (GPI) [2, 9]: 199 ± 62 | IC50 ratio, M (GPI) ([3]; antagonist 100 nM): 19.0 ± 6.2 | Ke, M (GPI) ([3]; antagonist 100 nM): 5.56 nM

17-(Cyclopropylmethyl)-6,7-dehydro-4,5α-epoxy-3,14-dihydroxy-5′-[(N^2-butyramidino)methy]-6,7-2′,3′-indolomorphinan Dihydrochloride [Compound 5]
IC50 ratio, D (MVD) [1]: 3.00 ± 0.51 | Selectivity κ/μ [2]: 10 | Selectivity κ/δ [2]: 62 | kappa antagonist potency compared with norBNI [2]: more potent | Kb [2, 8]: 0.54 nM | IC50 ratio, EK (GPI) [2, 9]: 185 ± 49 | IC50 ratio, M (GPI) ([3]; antagonist 100 nM): 18.2 ± 3.9 | Ke, M (GPI) ([3]; antagonist 100 nM): 5.84 nM

Oc1ccc2c3c1O[C@H]1c4[nH]c5ccccc5c4C[C@@]4(O)[C@@H](C2)N(CC2CC2)CC[C@]314 [NTI, naltrindole]
suppression of ethanol drinking [4]: unexpectedly prolonged suppression of ethanol drinking

C=CCN1CC[C@]23c4c5ccc(O)c4O[C@H]2C(=O)CC[C@@]3(O)[C@H]1C5 [Naloxone, naloxone]
ethanol and water intake [6]: suppress ethanol but not water intake

17-(Cyclopropylmethyl)-6,7-dehydro-4,5α-epoxy-3,14-dihydroxy-5′-[(N^2-acetamidino)methyl]-6,7-2′,3′-indolomorphinan Dihydrochloride [Compound 3]
IC50 ratio, D (MVD) [1]: 2.81 ± 0.62 | Selectivity κ/μ [2]: 9 | Selectivity κ/δ [2]: 44 | Kb [2, 8]: 0.81 nM | IC50 ratio, EK (GPI) [2, 9]: 124 ± 33 | IC50 ratio, M (GPI) ([3]; antagonist 100 nM): 13.4 ± 2.2 | Ke, M (GPI) ([3]; antagonist 100 nM): 8.04 nM

17-(Cyclopropylmethyl)-6,7-dehydro-4,5α-epoxy-3,14-dihydroxy-5 ′-[N^2-(4-dimethylaminobutyrylamidino)methyl]-6,7-2′,3′-indolomorphinan Trihydrochloride [Compound 44]
IC50 ratio, D (MVD) [1]: 2.71 ± 0.44 | Selectivity κ/μ [2]: 61 | Selectivity κ/δ [2]: 250 | kappa antagonist potency compared with norBNI [2]: more potent | kappa selectivity compared with norBNI ([2]; GPI/MVD): more selective | potency and selectivity among the compounds ([2]; GPI/MVD): greatest poteny and selectivity | potency and selectivity compared with norBNI ([2]; GPI/MVD): more potent and selective | Kb [2, 8]: 0.147 nM | IC50 ratio, EK (GPI) [2, 9]: 679 ± 273 | IC50 ratio, M (GPI) ([3]; antagonist 100 nM): 12.1 ± 3.4 | Ke, M (GPI) ([3]; antagonist 100 nM): 9.01 nM

O=C1CC[C@@]2(O)[C@H]3Cc4ccc(O)c5c4[C@@]2(CCN3CC2CC2)[C@H]1O5 [naltrexone]
incidence of relapse [7]: reduce the incidence of relapse

17-(Cyclopropylmethyl)-6,7-dehydro-4,5α-epoxy-3,14-dihydroxy-5′-[(N^2-3-methylpentanamidino)methyl]-6,7-2′,3′-indolomorphinan Dihydrochloride [Compound 2]
IC50 ratio, D (MVD) [1]: 1.19 ± 0.51 | Selectivity κ/μ [2]: 12 | Selectivity κ/δ [2]: 310 | kappa antagonist potency compared with norBNI [2]: more potent | Kb [2, 8]: 0.25 nM | IC50 ratio, EK (GPI) [2, 9]: 394 ± 97 | IC50 ratio, M (GPI) ([3]; antagonist 100 nM): 31.6 ± 10.7 | Ke, M (GPI) ([3]; antagonist 100 nM): 3.27 nM
